Test results taken from patent publication US6239131A, “1,5 Benzodiazepine derivatives” (Zeria Pharmaceutical Co., Ltd., priority 1996, dated 2001).
Where two headings read alike, the source gives them in different places.

Assays:
[1] = molecular target: T1, CCK-B receptors (Cavia porcellus, UniProt H0VZC5); experiment: Measurement of Binding Affinity for CCK-B Receptors; parameters: species or system Hartley-strain guinea pig; conditions: inhibition of specific [3H]CCK-8 (1.0 nM) binding; guinea pig cerebral cortex; 25° C., 2 hours; pH 6.5; read-out: Ki (CCK-B receptors)
T1 construct: Cerebral cortices were removed from Hartley-strain guinea pigs, the cerebral cortices were homogenized; from tissue; host or cells: cerebral cortex of Hartley-strain guinea pigs, crude membrane pellet
T1 sequence (H0VZC5 1-426): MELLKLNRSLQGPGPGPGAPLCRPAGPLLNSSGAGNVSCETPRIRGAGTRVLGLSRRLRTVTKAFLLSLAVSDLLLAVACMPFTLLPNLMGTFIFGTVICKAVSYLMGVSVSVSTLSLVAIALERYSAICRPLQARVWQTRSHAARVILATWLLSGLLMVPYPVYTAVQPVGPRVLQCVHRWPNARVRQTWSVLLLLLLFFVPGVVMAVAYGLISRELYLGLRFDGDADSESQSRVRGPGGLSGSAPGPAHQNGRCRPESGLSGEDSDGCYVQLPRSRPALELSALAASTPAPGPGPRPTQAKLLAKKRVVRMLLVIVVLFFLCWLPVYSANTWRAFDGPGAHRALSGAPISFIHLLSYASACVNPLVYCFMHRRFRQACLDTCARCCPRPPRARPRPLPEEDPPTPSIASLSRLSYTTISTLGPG
Procedure: Cerebral cortices were removed from Hartley-strain guinea pigs, the cerebral cortices were homogenized in 50 volumes of 50 mM Tris-HCl buffer (pH7.4) and centrifuged at 50000×g for 10 minutes. The Tris-HCl buffer was added to the pellet and recentrifuged as above two times. The final pellet was rehomogenized in 10 mM HEPES buffer (pH 6.5, which hereinafter be abbreviated as "solvent") containing 5 mM MgCl2, 1 mM EGTA, 0.25 mg/ml bacitracin and 130 mM NaCl, and used as the receptor preparation.
Binding assay was measured as follows. Fifty μl of [^3 H]CCK-8 (at the final concentration of 1.0 nM) and 900 μl of the receptor preparation (800 μg protein/tube) were added to 50 μl of either solvent, CCK-8 (1 μM) or a test compound. These ware reacted at 25° C. for 2 hours. After the reaction, the mixture was filtrated through Whatman GF/B filter presoaked in 0.1% BSA. The filter was washed with 3 ml of ice-cold 50 mM Tris-HCl buffer (pH 7.4) four times, immediately after the filtration. The filter was soaked in the ACS-II scintillation cocktail for a day and radioactivity was measured using a liquid scintillation counter. Non-specific binding was defined as the radioactivity in the presence of 1 μM CCK-8. Specific binding was defined as the difference between total binding (used solvent without CCK-8) and non-specific binding. Inhibitor dissociation constant (Ki) of each test compound was determined from the inhibition of specific [^3 H]CCK-8 binding.

[2] = test system: pentagastrin-stimulated acid secretion; experiment: Measurement of Inhibition of Pentagastrin-stimulated Acid Secretion; format: in vivo, male Sprague-Dawley (SD)-strain rats; conditions: intraduodenal; for inhibition in vivo at 10 mg/kg: read-out: % Inhibition of acid output
Procedure: Male Sprague-Dawley (SD)-strain rats were used. Each rat was operated to ligate the pylorus, and equip with a duodenal catheter and gastric fistula under a ether anesthesia. After the operation, each rat was placed in a Bollman-type cage and continuously infused pentagastrin (15 μg/kg/hr) through the tail vein. Test compounds were suspended in 0.5% aqueous sodium carboxymethylcellulose (which hereinafter be abbreviated as "vehicle"). Vehicle or test compound was administered through the intraduodenal catheter 1 hour after the beginning of pentagastrin infusion. Acidity of the collected gastric juice was measured by an automatic titillation device. Acid output was determined by multiplying the volume by the acidity of gastric juice. […] [formula]

[3] = molecular target: T2, CCK-A receptors (Cavia porcellus, UniProt Q63931); experiment: Measurement of Binding Affinity for CCK-A Receptors; parameters: species or system Hartley-strain guinea pig; conditions: inhibition of specific [3H]L-364,718 (0.2 nM) binding; guinea pig pancreas; 25° C., 2 hours; pH 6.5
T2 construct: Pancreases were removed from Hartley-strain guinea pigs, the pancreases were homogenized; from tissue; host or cells: pancreas of Hartley-strain guinea pigs, crude membrane pellet
T2 sequence (Q63931 1-430): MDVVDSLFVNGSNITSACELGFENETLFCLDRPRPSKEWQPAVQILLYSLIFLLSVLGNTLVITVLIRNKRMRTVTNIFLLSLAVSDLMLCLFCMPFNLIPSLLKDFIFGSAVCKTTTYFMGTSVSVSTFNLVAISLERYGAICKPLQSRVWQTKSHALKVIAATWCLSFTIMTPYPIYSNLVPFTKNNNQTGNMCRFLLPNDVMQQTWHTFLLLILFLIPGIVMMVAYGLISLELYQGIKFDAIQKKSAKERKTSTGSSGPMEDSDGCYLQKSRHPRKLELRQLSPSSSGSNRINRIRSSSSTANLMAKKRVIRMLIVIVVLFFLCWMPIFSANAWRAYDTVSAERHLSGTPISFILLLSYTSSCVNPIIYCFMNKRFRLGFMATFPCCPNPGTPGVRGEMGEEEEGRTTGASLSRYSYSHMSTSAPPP
Procedure: Pancreases were removed from Hartley-strain guinea pigs, the pancreases were homogenized in 40 volumes of 10 mM PIPES buffer (pH 6.5, which hereinafter be abbreviated as "solvent") containing 1 mM EGTA, 30 mM MgCl2, 0.02% bacitracin, 0.02% soybean trypsin inhibitor and 0.3 M sucrose. The homogenate was filtrated through gauze and centrifuged at 50000×g for 10 minutes. Solvent was added to the pellet and recentrifuged as above. The final pellet thus obtained was homogenized in 40 volumes of solvent and used as the receptor preparation.
Binding assay was measured as follows. Fifty μl of [^3 H]L-364, 718 (at the final concentration of 0.2 nM) and 900 μl of the receptor preparation (50 μg protein/tube) were added to 50 μl of solvent, or L-364, 718 (1 μM) or a test compound. This mixture was incubated at 25° C. for 2 hours. After the reaction, the mixture was filtrated through Whatman GF/B filter presoaked in 0.1% BSA (bovine serum albumin). The filter was washed with 3 ml of ice-cold 10 mM PIPES buffer (pH 6.5) three times, immediately after the filtration. The filter was soaked in the ACS-II scintillation cocktail for one day and radioactivity was measured using a liquid scintillation counter. Non-specific binding was defined as the radioactivity in the presence of 1 μM L-364, 718. Specific binding was defined as the difference between total binding (used solvent without L-364, 718) and non-specific binding. lnhibitor dissociation constant (Ki) of each test compound was determined from the inhibition of specific [^3 H]L-364, 718 binding.

[4] = rat, acid output from 1 to 4 hours after administration, pentagastrin 15 μg/kg/hr

SMILES | Ki [1] [nM] | Ki [3] [nM] | inhibition in vivo at 1 mg/kg [2, 4] [%] | further results
CC(=O)N1CC(NC(=O)Nc2cccc(C(=O)O)c2)C(=O)N(CC(=O)c2ccccc2C)c2cc(C)ccc21 (stereo not shown) [Example 111, 3-[3-[1-(2-toluoylmethyl)-2-oxo-5-acetyl-8-methyl-1,3,4,5-tetrahydro-2H-1,5-benzodiazepin-3-yl]ureido]benzoic acid] |  | 6.34 |  | 
Cc1cccc(NC(=O)NC2CN(C(=O)C(C)(C)C)c3ccccc3N(CC(=O)c3ccccc3C)C2=O)c1 (stereo not shown) [Example 1, 1-[1-(2-toluoylmethyl)-2-oxo-5-pivaloyl-1,3,4,5-tetrahydro-2H-1,5-benzodiazepin-3-yl]-3-(3-methylphenyl)urea] | 6.47 |  |  | inhibition in vivo at 30 mg/kg [2, 4]: 59.4%
Cc1ccc2c(c1)N(CC(=O)C(C)(C)C)C(=O)C(NC(=O)Nc1cccc(C(=O)O)c1)CN2c1ccccc1 (stereo not shown) [Example 95, 3-[3-(1-tert-butylcarbonylmethyl-2-oxo-5-phenyl-8-methyl-1,3,4,5-tetrahydro-2H-1,5-benzodiazepin-3-yl]ureido]benzoic acid] | 2.26 |  | 49 | 
Cc1ccccc1C(=O)CN1C(=O)C(NC(=O)Nc2cccc(C(=O)O)c2)CN(C(=O)C(C)(C)C)c2ccccc21 (single isomer, unassigned) | 1.42 |  |  | inhibition in vivo at 10 mg/kg ([2]; Rattus norvegicus, 4 h): 69.8%
CC(C)(C)OC(=O)CN1C(=O)C(NC(=O)Nc2cccc(C(=O)O)c2)CN(c2ccccc2)c2ccccc21 (stereo not shown) [Example 80, 3-[3-[1-tert-butoxycarbonylmethyl-2-oxo-5-phenyl-1,3,4,5-tetrahydro-2H-1,5-benzodiazepin-3-yl]ureido]benzoic acid] | 2.62 |  |  | inhibition in vivo at 3 mg/kg [2, 4]: 45.4%
Cc1ccc2c(c1)N(CC(=O)c1ccco1)C(=O)C(NC(=O)Nc1cccc(C(=O)O)c1)CN2C(=O)C(C)(C)C (stereo not shown) [Example 114, 3-[3-[1-(furan-2-yl)carbonylmethyl-2-oxo-5-pivaloyl-8-methyl-1,3,4,5-tetrahydro-2H-1,5-benzodiazepin-3-yl]ureido]benzoic acid] | 9.43 |  |  | inhibition in vivo at 30 mg/kg [2, 4]: 89.7%
CC(C)(C)C(=O)CN1C(=O)C(NC(=O)Nc2cccc(C(=O)O)c2)CN(C(=O)C(C)(C)C)c2ccccc21 (stereo not shown) [Example 10, 3-[3-(1-tert-butylcarbonylmethyl-2-oxo-5-pivaloyl-1,3,4,5-tetrahydro-2H-1,5-benzodiazepin-3-yl)ureido]benzoic acid] | 6.87 |  |  | inhibition in vivo at 10 mg/kg ([2]; 10 mg/kg, rat, acid output from 1 to 4 hours after administration, pentagastrin 15 μg/kg/hr): 67.1%
Cc1ccc2c(c1)N(CC(=O)c1ccccc1C)C(=O)C(NC(=O)Nc1cccc(C(=O)O)c1)CN2C(=O)C(C)(C)C (racemic) [Example 13 (racemate), 3-[3-[1-(2-toluoylmethyl)-2-oxo-5-pivaloyl-8-methyl-1,3,4,5-tetrahydro-2H-1,5-benzodiazepin-3-yl]ureido]benzoic acid] | 3.16 |  |  | inhibition in vivo at 3 mg/kg [2, 4]: 80.9%
Cc1cccc(NC(=O)NC2CN(C(=O)C3CCCC3)c3ccccc3N(CC(=O)c3ccccc3C)C2=O)c1 (stereo not shown) [Example 28, 1-[1-(2-toluoylmethyl)-2-oxo-5-cyclopentylcarbonyl-1,3,4,5-tetrahydro-2H-1,5-benzodiazepin-3-yl]-3-(3-methylphenyl)urea] |  | 14.3 |  | 
Cc1cccc(NC(=O)NC2CN(C(=O)C3CCCCC3)c3ccccc3N(CC(=O)c3ccccc3C)C2=O)c1 (stereo not shown) [Example 14, 1-[1-(2-toluoylmethyl)-2-oxo-5-cyclohexylcarbonyl-1,3,4,5-tetrahydro-2H-1,5-benzodiazepin-3-yl]-3-(3-methylphenyl)urea] |  | 13.2 |  | 

The remaining compounds from weak to strong by Ki [1], led by results:

Ki [1] [nM] | Ki [3] [nM] | SMILES | inhibition in vivo at 1 mg/kg [2, 4] [%] | further results
1.81 | 346 | Cc1ccc2c(c1)N(CC(=O)c1ccccc1C)C(=O)C(NC(=O)Nc1cccc(C(=O)O)c1)CN2C(=O)CC(C)(C)C (stereo not shown) [Example 109, 3-[3-[1-(2-toluoylmethyl)-2-oxo-5-(3,3-dimethylbutanoyl)-8-methyl-1,3,4,5-tetrahydro-2H-1,5-benzodiazepin-3-yl]ureido]benzoic acid] | 54 | 
1.59 | 367 | Cc1ccc2c(c1)N(CC(=O)C(C)(C)C)C(=O)C(NC(=O)Nc1cccc(C(=O)O)c1)CN2c1ccccc1 (single isomer, unassigned; (-)) [Example 97, (-)-3-[3-(1-tert-butylcarbonylmethyl-2-oxo-5-phenyl-8-methyl-1,3,4,5-tetrahydro-2H-1,5-benzodiazepin-3-yl)ureido]benzoic acid] |  | 
1.16 |  | Cc1ccc2c(c1)N(CC(=O)c1ccccc1C)C(=O)C(NC(=O)Nc1cccc(C(=O)O)c1)CN2C(=O)C(C)(C)C (single isomer, unassigned; (+)) [Example 13 (+form), (+)-3-[3-[1-(2-toluoylmethyl)-2-oxo-5-pivaloyl-8-methyl-1,3,4,5-tetrahydro-2H-1,5-benzodiazepin-3-yl]ureido]benzoic acid] | 81.5 | 
0.77 | 303 | CC(C)(C)C(=O)CN1C(=O)C(NC(=O)Nc2cccc(C(=O)O)c2)CN(c2ccccc2)c2ccccc21 (racemic) [Example 70 (racemate), 3-[3-(1-tert-butylcarbonylmethyl-2-oxo-5-phenyl-1,3,4,5-tetrahydro-2H-1,5-benzodiazepin-3-yl)ureido]benzoic acid] |  | inhibition in vivo at 3 mg/kg [2, 4]: 76.5%
0.59 | 130 | Cc1ccc2c(c1)N(CC(=O)c1ccccc1C)C(=O)C(NC(=O)Nc1cccc(C(=O)O)c1)CN2C(=O)c1cccs1 (stereo not shown) [Example 104, 3-[3-[1-(2-toluoylmethyl)-2-oxo-5-(2-thenoyl)-8-methyl-1,3,4,5-tetrahydro-2H-1,5-benzodiazepin-3-yl]ureido]benzoic acid] | 58 | 
0.21 |  | CC(C)(C)C(=O)CN1C(=O)[C@H](NC(=O)Nc2cccc(C(=O)NS(C)(=O)=O)c2)CN(C2CCCCC2)c2ccccc21 [Example 168, (R)-(-)-1-(1-tert-butylcarbonylmethyl-2-oxo-5-cyclohexyl-1,3,4,5-tetrahydro-2H-1,5-benzodiazepin-3-yl)-3-(3-methylsulfonylaminocarbonylphenyl)urea] | 58.9 | 
0.11 | 16.7 | CC(C)(C)C(=O)CN1C(=O)C(NC(=O)Nc2cccc(SCC(=O)O)c2)CN(c2ccccc2)c2ccccc21 (single isomer, unassigned; (-)) [Example 88 (-form)] | 68.4 | 
0.1 |  | CC(C)(C)C(=O)CN1C(=O)[C@H](NC(=O)Nc2cccc(SCC(=O)O)c2)CN(C2CCCCC2)c2ccccc21 [Example 169, (R)-(-)-3-[3-(1-tert-butylcarbonylmethyl-2-oxo-5-cyclohexyl-1,3,4,5-tetrahydro-2H-1,5-benzodiazepin-3-yl)ureido]phenylthioacetic acid] | 75.2 | 
